Data as given in patent publication US20250002954A1, “Novel Compound, Use Thereof, and Method for Producing Same, and Compound-Containing Composition, Method for Producing 4-Trehalosamine, and Microorganism” (Microbial Chemistry Research Foundation, priority 2021, published 2025).

Assays:
[1] = Measurement of critical micelle concentration (CMC) with CMC assay kit; format: physicochemical
Procedure: (§1) For the IMCTA-C8, IMCTA-C9, IMCTA-C10, IMCTA-C11, IMCTA-C12, IMCTA-C13, IMCTA-C14, and IMCTA-C15 (IMCTA-Cn) that were obtained in synthesis examples 1 to 8 and for n-dodecyl-β-D-maltoside (DDM) as control, “critical micelle concentration (CMC)”, “micelle size”, and “Hydrophilic-Lipophilic Balance (HLB) value” were measured or calculated in the following manner.
CMC was measured with a Detergent Critical Micelle Concentration (CMC) Assay Kit (CMC1000, manufactured by ProFoldin) according to the product protocol.

[2] = Measurement of micelle size by dynamic light scattering; format: physicochemical
Procedure: as §1
Micelle sizes were measured by dynamic light scattering with Zetasizer Nano S (manufactured by Malvern Panalytical).

[3] = system: human ovarian cancer cells OVK18 and human malignant melanoma cells Mewo; assay: Autophagy inducing effect on cultured cells (western blotting of autophagy-related proteins); format: cell-based
Procedure: Expression and phosphorylation patterns of autophagy-related proteins when human ovarian cancer cells or human malignant melanoma cells were treated with 4-trehalosamine and trehalose analog for 24 hours were determined by western blotting.
Human ovarian cancer cells OVK18 (obtained from RIKEN BRC) and human malignant melanoma cells Mewo (JCRB0066) were each inoculated on a 12-well microplate at 8×10^4 cells/mL/well and cultured in DMEM culture medium at 37° C. for 72 hours, after which they were treated with test samples.
The test samples used were the 4-trehalosamine (4TA) obtained in the <Purification process> of production example 10, trehalose (TRH), the IMCTA-Cn compounds obtained in synthesis examples 1 to 8, trehalose ester (TRH-Cn) (manufactured by Dojindo Laboratories), n-dodecyl-β-D-maltoside (DDM), maltose (MLT), sucrose (SCR), and rapamycin (RM). Untreated cells without addition of compounds were used as control.
In treatment with the test samples, in order to avoid contact of a compound with locally high concentration with cells, a half of the culture fluid in each well was taken, and a required amount of test sample was dissolved in it. After dissolving it sufficiently, it was returned to the original well and treated at 37° C. for 24 hours.
Subsequently, culture medium containing the test samples was removed, washed once with PBS, and dissolved with 2×SDS sample buffer not containing 2-mercaptoethanol (2-ME) or bromphenol blue (BPB). After measuring the protein concentration in the dissolved sample with a BCA protein assay kit (manufactured by Thermo Fisher Scientific), 2-ME and BPB were added and the sample was boiled for 5 minutes, which was used as a sample for western blotting.
The western blotting was performed in a similar manner to test example 4 except that anti-LC3 antibody, which is a marker for autophagy, anti-p62, anti-cathepsin D antibody, anti-Phospho-Akt (Ser473) antibody, anti-Akt antibody, anti-Phospho-p70 S6K (T389) antibody, and anti-p70 S6K antibody (all manufactured by Cell Signaling Technology) were used at 1/2,000 dilution as the primary antibodies in the method described in test example 4.
The results for human ovarian cancer cells OVK18 are shown in FIGS. 20A to 20C, and the results for human malignant melanoma cells Mewo are shown in FIGS. 20D to 20F. In FIGS. 20A, 20B, 20D, and 20E, “PCD” denotes precursors of cathepsin D and “CD-HC” denotes cathepsin D heavy chain.

[4] = system: human ovarian cancer cells OVK18 and human malignant melanoma cells Mewo; assay: LC3-II expression in combination with autophagy inhibitor (bafilomycin or chloroquine); format: cell-based; conditions: 50 mM 4-trehalosamine, 50 μM IMCTA-C14 or 100 mM trehalose 14 hours, then 200 nM BM or 100 μM CQ 4 hours
Procedure: As with the test example 10-1, human ovarian cancer cells OVK18 (obtained from RIKEN BRC) and human malignant melanoma cells Mewo (JCRB0066) were each inoculated on a 12-well microplate at 8×10^4 cells/mL/well, and cultured in DMEM culture medium at 37° C. for 72 hours. After that, a half of the culture fluid in each well was taken and each compound was dissolved so that the final concentration is 50 mM 4-trehalosamine, 50 μM IMCTA-C14, or 100 mM trehalose. After dissolving it sufficiently, the cells were returned to the original well and treated at 37° C. for 14 hours. Untreated cells without addition of the compounds were used as control.
After that, each autophagy inhibitor was added so that the final concentration is 200 nM bafilomycin (BM) or 100 μM chloroquine (CQ), and the cells were cultured at 37° C. for 4 hours. A group with no inhibitor added was cultured in a similar way. After culture, they were turned into samples for western blotting in a similar manner to test example 10-1.
The western blotting was performed in a similar manner to test example 4 except that anti-LC3 antibody (manufactured by Cell Signaling Technology) was used at 1/2,000 dilution as the primary antibody in the method described in test example 4. The results for human ovarian cancer cells OVK18 are shown in FIG. 21A, and the results for human malignant melanoma cells Mewo are shown in FIG. 21B.
Also, the results (graphs) of image analysis on the results of western blotting via Image J (manufactured by National Institutes of Health) are shown in FIGS. 21A and 21B (n=10, mean±S.D.). The vertical axis of the graph indicates the value of the amount of expression (expression amount ratio) of LC3-II for the groups with the different compounds added when the amount of expression of LC3-II in the control (untreated cells) is 1. […]

[5] = system: aggregated proteins Q74 and SynA53T in SH-SY5Y cells and NH-12 cells; assay: Elimination effect on aggregated protein in cells (Q74, SynA53T); format: cell-based, human; conditions: 100 mM 4-trehalosamine, 70 μM IMCTA-C14 or 100 mM trehalose, 14 hours; SH-SY5Y and NH-12 cells
Procedure: The effect of 4-trehalosamine or trehalose analog on Q74, which is partial peptide of huntingtin (Htt), the causal protein of Huntington's disease, and SynA53T, which is a mutation of α-synuclein, the causal protein of Parkinson's disease, (both aggregated proteins) was determined in the following manner.
Neuroblastoma cells SH-SY5Y (obtained from European Collection of Authenticated Cell Cultures (ECACC)) and human neuroblastoma cells NH-12 (obtained from RIKEN BRC) were each inoculated at 14×10^4 cells/mL and cultured in DMEM culture medium at 37° C. for 48 hours.
After the culture of SH-SY5Y cells and NH-12 cells, pEGFP-Q74 vector or EGFP-alphasynuclein-A53T (both obtained from addgene), which are expression vectors of aggregated protein, were transfected with transfection reagent (Viafect, manufactured by Promega). After 24 hours from the transfection, 100 mM 4-trehalosamine, 70 μM IMCTA-C14, or 100 mM trehalose was added and the cells were further treated for 14 hours. Untreated cells without addition of the compounds were used as control. After washing the cells three times with PBS, hyposmotic fluid (solution of one tablet of cOmplete, Mini, EDTA-free Protease Inhibitor Cocktail (CM, manufactured by Merck) in 50 mL of pure water) was added and the mixture was shaken on ice for 10 minutes. It was then centrifuged at 21,300×g for 10 minutes to be separated into soluble protein (Sol) and aggregated protein (Agg) […]. Thereafter, they were turned into samples for western blotting in a similar manner to test example 10-1.
The western blotting was performed in a similar manner to test example 4 except that anti-GFP antibody (manufactured by Proteintech) was used at 1/5,000 dilution and anti-LC3 antibody (manufactured by Cell Signaling Technology) was used at 1/2,000 dilution as the primary antibodies in the method described in test example 4. The results for neuroblastoma cells SH-SY5Y are shown in FIGS. 22A and 22B, and the results for human neuroblastoma cells NH-12 are shown in FIGS. 22C and 22D. […]

[6] = system: Mycobacterium smegmatis mc^2 (ATCC 700084); assay: Staining of mycobacterium with IMCTA-fluorescein, IMCTA-biotin or IMCTA-azide; format: cell-based
[7] = system: Mycobacterium smegmatis bacterial cells; assay: TLC analysis of lipid components of IMCTA-fluorescein stained cells; format: cell-based; conditions: bacterial cells which had ingested IMCTA-fluorescein
Procedure: TLC analysis was performed on the lipid components of bacterial cell suspension of Mycobacterium smegmatis bacterial cells stained with IMCTA-fluorescein in test example 11-1 or bacterial cell suspension of Mycobacterium smegmatis bacterial cells treated with DMSO.
The TLC analysis was performed based on the method of Kai et al. (M. Kai et al., FEBS Lett 2007, 581, p. 3345-3350).
The bacterial cell suspension of Mycobacterium smegmatis bacterial cells stained with IMCTA-fluorescein in test example 11-1 or the bacterial cell suspension of Mycobacterium smegmatis bacterial cells treated with DMSO was centrifuged at 21,300×g for 1 minute. […]
In the TLC analysis, a Silica gel 60 TLC plate (manufactured by Merck) was used and the solvent was developed with chloroform/methanol/acetone/acetonitrile (90:10:6:1, v/v). The lipid as a whole was detected with phosphomolybdic acid solution similar to that in test example 1 and fluorescence was detected with a UV trans-illuminator (NTFM-20, manufactured by Analytik Jena US LLC).
The phosphomolybdic acid staining patterns for the entire component are shown in FIG. 26A and the fluorescence detection patterns are shown in FIG. 26B. […] In FIG. 26B, the arrows indicate components for which fluorescence is seen only in the IMCTA-fluorescein treated sample.

Structure (SMILES) | CMC [1] [mM] | Micelle size [2] [nm] | accumulation of PCD (precursors of cathepsin D) ([3]; 24 hours) | concentration giving same or higher LC3-II expression, relative to trehalose ([3]; 24 hours) | p62 ([3]; 24 hours) | pAkt ([3]; 24 hours) | phosphorylation of p70 S6K ([3]; 24 hours) | expression of LC3-II (autophagy marker) ([3]; 24 hours treatment, western blotting) | expression of LC3-II in combination with bafilomycin (BM) or chloroquine (CQ) [4] | aggregate of Q74 and aggregate of SynA53T [5] | ingestion into bacterial cells and fluorescence (staining) ([6]; 10 μg/mL IMCTA-fluorescein, 30 μg/mL IMCTA-biotin, 10 μg/mL IMCTA-azide, 37° C., 8 hours) | ingestion in the presence of sucrose (blocking) ([6]; sucrose 1% or 3%) | ingestion in the presence of trehalose (blocking) ([6]; trehalose 1% or 3%) | fluorescent lipids detected by TLC [7]
CCCCCCCCCCCCCCN[C@@H]1C(CO)O[C@H](O[C@H]2OC(CO)[C@@H](O)C(O)C2O)C(O)C1O (some centres unmarked) [IMCTA-C14] | 0.11 | 16.5 ± 4.4 | no accumulation of PCD was observed | several thousand times lower than trehalose | accumulation trend of p62 | decreasing trend of pAkt | p70 S6K was not dephosphorylated | particularly strong expression | increased expression of LC3-II | significantly decreased | – | – | – | –
O=C(N[C@@H]1C(CO)O[C@H](O[C@H]2OC(CO)[C@@H](O)C(O)C2O)C(O)C1O)c1ccc2c(c1)C(=O)OC21c2ccc(O)cc2Oc2cc(O)ccc21 (some centres unmarked) [IMCTA-fluorescein] | – | – | – | – | – | – | – | – | – | – | ingested into Mycobacterium smegmatis bacterial cells and emitted fluorescence | no significant inhibition | inhibition was observed in the presence of 1% trehalose | two fluorescent lipids were detected
